In patent US9121040B2, “Process for rapid anaerobic digestion of biomass using microbes and the production of biofuels therefrom” (priority 2006, dated 2015):
Read-outs that look alike come from different tables or passages of the source. Marks after values point to notes of the source that are not given here.

Tested on: ruminal microorganisms
Assay: Effect of sulfur reducing agents on gas, volatile fatty acid and alcohol production, timothy hay with ruminal microorganisms (Example 7)
Format: cell-based, mixed rumen microorganisms from cows
Settings: for H2 (% of all gases): 0.32 mmol/flask agent, timothy hay, mean of initial gas CO2 or N2 without added H2; for H2 (% of fermentation gas): molar percentage among gases excluding N2; for NDF remaining (% of DM): neutral detergent fiber after 24 h
Procedure: Initial in vitro experiments used timothy grass hay as substrate. For each digestion experiment, we obtained one-half liter of rumen contents from each of two ruminally-cannulated cows two to four hours after morning feeding. The digesta were mixed and ground in a Waring blender for 1 minute while being maintained under CO2 gas. Fluid was strained through four layers of cheese cloth followed by glass wool to remove large particles. Rumen fluid was added to a bicarbonate or 0.1 M sodium phosphate buffer with mineral salts.
Gas samples were collected continuously in mylar balloons, and gas volumes recorded at various time points. Glass tubing coated with epoxy was pushed into the opening on the mylar balloons. The tubing was connected to luer-lock connectors via nylon tubing. Samples were taken using glass syringes attached to the luer-lock connectors. Samples were stored in gas-tight vials for analysis of composition by GC with thermal conductivity detector. Rates of gas production were determined by fitting an inverted exponential equation.
The pH and reducing potential were determined using standard glass or platinum electrodes respectively, while maintaining the gas composition by keeping the flasks closed to the atmosphere with putty fitted around the electrodes. Liquid samples were collected at designated time points and analyzed by gas chromatography (GC) for alcohols (methanol, ethanol, propanol, butanol) volatile fatty acids (acetate, propionate, butyrate, etc). Rates of alcohol or VFA production were determined by fitting an inverted exponential equation.
True fiber digestibility was determined directly on the residue of digestion by refluxing in pH-neutral detergent solution for one hour, drying at 100° C. overnight and weighing.
An experiment was conducted to determine the effect of adding sulfur reducing agents on production of gases, volatile fatty acids, and alcohols. Twenty treatments were arranged in a 2×2×5 factorial design with factors of initial headspace gas (CO2 or N2), addition of 25 ml H2 gas to the initial headspace (+H2, —H2), or one of five sources of sulfur redox agents (0.32 mmol/flask): Na2SO4, Na2SO3, S^0, Na2S, or none. Samples (0.5 g timothy hay) were incubated for 24 hours and products measured as previously. At the start of the incubation, each 125-ml flask was perfused with respective gas. For treatments receiving added H2, 25 ml of perfused gas (at 1 atm pressure) was removed from the flask headspace and forced into the collection balloon. This removed gas was replaced with H2.

[1] = 24 h, mean of CO2 or N2 without added H2
[2] = mean of CO2 or N2 without added H2

Compound | H2 (% of all gases) (24 h) | 1-propanol [1] | 2Acet + 2Butyr − Propionate (estimated production of H2 equivalent from fermentation of sugar to VFA) [1] | Acetate [1] | Acetate:Butyrate, mole ratio [1] | Acetate:Propion, mole ratio [1] | Butyrate [1] | CH4 (% of all gases) [1] | CH4 (% of fermentation gas) [1] | CH4:CO2 (molar ratio) [1] | CH4:H2 (molar conc. ratio) [1] | CH4 production [1] | CO2 (% of all gases) [1] | CO2 (% of fermentation gas) [1] | CO2 production [1] | Ethanol [1] | H2 equivalent (H2 + 4 CH4) [1] | H2 production [1] | Isobutyrate [1] | Isovalerate [1] | also measured
[Na+].[Na+].[S-2] [Na2S] | 0.078^b % | 0 µmol | 2660^a μmol | 541^a μmol | 6.91^a | 2.59 | 202^a μmol | 5.04^a % | 14.3^a % | 0.183^a | 69^a | 335^a μmol | 42.9^b % | 85.5^b % | 1773^ab μmol | 0 µmol | 1344^a | 5.2^b μmol | 13.5^a μmol | 14.7^a μmol | Eh [1]: −269^c; Propionate [1]: 541^a μmol; Total VFA [1]: 2190^a μmol; VFA-C [1]: 5455^a μmol; pH [1]: 6.47^b; valerate [1]: 19.5^a μmol; H2 (% of fermentation gas) [1]: 0.24^b %; NDF remaining (% of DM) [2]: 35.7^b % of DM
O=S([O-])[O-].[Na+].[Na+] [SO3, Na2SO3] | 1.39^a % | 5.4^6 μmol | 1483^b μmol | 293^b μmol | 4.89^b | 2.52 | 152^b μmol | 0.12^b % | 0.82^b % | 0.010^b | 0.1^b | 6.6^b μmol | 47.9^ab % | 92.0^a % | 1002^b μmol | 25.8^5 μmol | 103^b | 76.6^a μmol | 9.8^b μmol | 12.3^b μmol | Eh: −264^bc; Propionate [1]: 293^b μmol; Total VFA [1]: 1206^b μmol; VFA-C [1]: 3071^b μmol; pH [1]: 6.72^a; valerate [1]: 2.33^c μmol; Methane production (H2 added at the beginning): ≤ 5 µmol; effect on methane production (each gas composition): strongly inhibited; H2 (% of fermentation gas) [1]: 8.18^a %; NDF remaining (% of DM) [2]: 57.2^a % of DM; valerate (starting with CO2, H2 added): 2.3 µmol; valerate (starting with CO2, H2 not added): 3.0 µmol; valerate (starting with N2, H2 added): 8.3 µmol; valerate (starting with N2, H2 not added): 1.7 µmol; hydrogen production (when H2 was added to initial headspace): -179 µmol
O=S(=O)([O-])[O-].[Na+].[Na+] [SO4, Na2SO4] | 0.073^b % | 0 µmol | 2628^a μmol | 538^a μmol | 7.00^a | 2.57 | 198^a μmol | 5.02^a % | 14.4^a % | 0.182^a | 85^a | 363^a μmol | 52.1^a % | 85.4^b % | 2298^ab μmol | 0 µmol | 1459^a | 5.0^b μmol | 12.0^a μmol | 13.0^ab μmol | Eh: −247^ab; Propionate [1]: 538^a μmol; Total VFA [1]: 2162^a μmol; VFA-C [1]: 5370^a μmol; pH [1]: 6.45^b; valerate [1]: 16.7^b μmol; H2 (% of fermentation gas) [1]: 0.24^b %; NDF remaining (% of DM) [2]: 36.0^b % of DM
[S] [S^0] | 0.080^b % | 0 µmol | 2840^a μmol | 550^a μmol | 7.57^a | 2.72 | 198^a μmol | 4.61^a % | 13.8^a % | 0.171^a | 79^a | 334^a μmol | 50.5^a % | 86.0^b % | 1795^ab μmol | 0 µmol | 1340^a | 5.9^b μmol | 12.2^a μmol | 13.3^ab μmol | Eh: −249^abc; Propionate [1]: 550^a μmol; Total VFA [1]: 2287^a μmol; VFA-C [1]: 5634^a μmol; pH [1]: 6.43^b; valerate [1]: 17.1^b μmol; H2 (% of fermentation gas) [1]: 0.22^b %; NDF remaining (% of DM) [2]: 36.5^b % of DM
